Results taken from patent US20200038513A1, “MODULATORS OF FAK PROTEOLYSIS AND ASSOCIATED METHODS OF USE” (ARVINAS OPERATIONS, INC., priority 2018, published 2020).
Read-outs that look alike come from different tables or passages of the source.

Assay: Pharmacokinetics of intraperitoneal or intravenous injection in CD1 mice
Type: in vivo
Details: CD1 mice plasma; for concentration at 0.25 h / concentration at 0.5 h / concentration at 1 h / concentration at 2 h / concentration at 4 h / concentration at 0.033 h / concentration at 0.083 h: male, CD1, mouse, plasma
Protocol: The pharmacokinetics of exemplary compounds 103, 107, 100, 101, and 102 was examined for intraperitoneal and intravenous administration. The desired serial concentrations of working solutions were achieved by diluting stock solution (1 mg/mL in DMSO) of analyte with methanol. In particular, 20 μL of working solutions (1, 2, 5, 10, 50, 100, 500, 1000, 2000 ng/mL) were added to 20 μL of the blank CD1 mice plasma to achieve calibration standards of 1-2000 ng/mL (1, 2, 5, 10, 50, 100, 500, 1000, 2000 ng/mL) in a total volume of 40 μL. Dose of IV and IP were diluted by 1000 fold and 10000 with methanol, 20 μL of the diluted dose solutions were added to 20 μL of the blank CD1 mice plasma to achieve dose samples. Next, 40 μL standards and 40 μL dose samples were added to 20 μL of IS (100 ng/mL) and 200 μL of acetonitrile for precipitating protein respectively. Then the samples were vortexed for 30 seconds. After centrifugation at 4 degree Celsius, 4000 rpm for 15 minutes, the supernatant was diluted 3 times with water. 10 μL of the diluted supernatant was injected into the LC/MS/MS system for quantitative analysis.
Exemplary compounds 103, 107, 100, 101, and 102 were administered intravenously (5 second injection of 10% HP-b-CD and 40 mM sodium acetate and 40 mM NaCl in water, pH4.5) or intraperitoneally (5% EtOH and 5% Solutol HS15 in D5W(ESD-2)) to 6-8 week old male CD1 mice (3 mice per treatment group for a total of 12 mice) at the time points indicated below in Table 7. The mice had free access to food and water.
Dorsal metatarsal vein samples (30 μL), except that the final sample was acquired via a heart puncture, were taken from the mice at the same the administration time points as shown in Table 7.

[1] = iv, 1 mg/kg, IV 1.0 mg/kg, read-out: Conc. (ng/mL) Mouse 1
[2] = iv, 1 mg/kg, IV 1.0 mg/kg, read-out: Conc. (ng/mL) Mouse 2
[3] = iv, 1 mg/kg, IV 1.0 mg/kg, read-out: Conc. (ng/mL) Mouse 3
[4] = iv, 1 mg/kg, IV 1.0 mg/kg, read-out: Mean

Conc. (ng/mL) Mouse 1 (IP 10 mg/kg, 8 h): BLOQ
Conc. (ng/mL) Mouse 2 (IP 10 mg/kg, 8 h): BLOQ
Conc. (ng/mL) Mouse 3 (IP 10 mg/kg, 8 h): BLOQ
Conc. (ng/mL) Mouse 1 (IP 10 mg/kg, 24 h): BLOQ
Conc. (ng/mL) Mouse 2 (IP 10 mg/kg, 24 h): BLOQ
Conc. (ng/mL) Mouse 3 (IP 10 mg/kg, 24 h): BLOQ
Conc. (ng/mL) Mouse 1 (IV 1.0 mg/kg, 0.25 h): BLOQ
Conc. (ng/mL) Mouse 1 (IV 1.0 mg/kg, 0.5 h): BLOQ
Conc. (ng/mL) Mouse 2 (IV 1.0 mg/kg, 0.5 h): BLOQ
Conc. (ng/mL) Mouse 3 (IV 1.0 mg/kg, 0.5 h): BLOQ
Conc. (ng/mL) Mouse 1 (IV 1.0 mg/kg, 1 h): BLOQ
Conc. (ng/mL) Mouse 2 (IV 1.0 mg/kg, 1 h): BLOQ
Conc. (ng/mL) Mouse 3 (IV 1.0 mg/kg, 1 h): BLOQ
Conc. (ng/mL) Mouse 1 (IV 1.0 mg/kg, 2 h): BLOQ
Conc. (ng/mL) Mouse 2 (IV 1.0 mg/kg, 2 h): BLOQ
Conc. (ng/mL) Mouse 3 (IV 1.0 mg/kg, 2 h): BLOQ
Conc. (ng/mL) Mouse 1 (IV 1.0 mg/kg, 4 h): BLOQ
Conc. (ng/mL) Mouse 2 (IV 1.0 mg/kg, 4 h): BLOQ
Conc. (ng/mL) Mouse 3 (IV 1.0 mg/kg, 4 h): BLOQ
Conc. (ng/mL) Mouse 1 (IV 1.0 mg/kg, 8 h): BLOQ
Conc. (ng/mL) Mouse 2 (IV 1.0 mg/kg, 8 h): BLOQ
Conc. (ng/mL) Mouse 3 (IV 1.0 mg/kg, 8 h): BLOQ
Conc. (ng/mL) Mouse 1 (IV 1.0 mg/kg, 24 h): BLOQ
Conc. (ng/mL) Mouse 2 (IV 1.0 mg/kg, 24 h): BLOQ
Conc. (ng/mL) Mouse 3 (IV 1.0 mg/kg, 24 h): BLOQ
concentration at 0.25 h (ip, 10 mg/kg, IP 10 mg/kg, 0.25 h, read-out: Conc. (ng/mL) Mouse 1): 44.8 ng/mL
concentration at 0.25 h (ip, 10 mg/kg, IP 10 mg/kg, 0.25 h, read-out: Conc. (ng/mL) Mouse 2): 42.6 ng/mL
concentration at 0.25 h (ip, 10 mg/kg, IP 10 mg/kg, 0.25 h, read-out: Conc. (ng/mL) Mouse 3): 111 ng/mL
concentration at 0.25 h (ip, 10 mg/kg, IP 10 mg/kg, 0.25 h, read-out: Mean): 66 ng/mL
concentration at 0.5 h (ip, 10 mg/kg, IP 10 mg/kg, 0.5 h, read-out: Conc. (ng/mL) Mouse 1): 68.4 ng/mL
concentration at 0.5 h (ip, 10 mg/kg, IP 10 mg/kg, 0.5 h, read-out: Conc. (ng/mL) Mouse 2): 41.9 ng/mL
concentration at 0.5 h (ip, 10 mg/kg, IP 10 mg/kg, 0.5 h, read-out: Conc. (ng/mL) Mouse 3): 69.3 ng/mL
concentration at 0.5 h (ip, 10 mg/kg, IP 10 mg/kg, 0.5 h, read-out: Mean): 59.9 ng/mL
concentration at 1 h (ip, 10 mg/kg, IP 10 mg/kg, 1 h, read-out: Conc. (ng/mL) Mouse 1): 64.7 ng/mL
concentration at 1 h (ip, 10 mg/kg, IP 10 mg/kg, 1 h, read-out: Conc. (ng/mL) Mouse 2): 54.2 ng/mL
concentration at 1 h (ip, 10 mg/kg, IP 10 mg/kg, 1 h, read-out: Conc. (ng/mL) Mouse 3): 199 ng/mL
concentration at 1 h (ip, 10 mg/kg, IP 10 mg/kg, 1 h, read-out: Mean): 106 ng/mL
concentration at 2 h (ip, 10 mg/kg, IP 10 mg/kg, 2 h, read-out: Conc. (ng/mL) Mouse 1): 53.2 ng/mL
concentration at 2 h (ip, 10 mg/kg, IP 10 mg/kg, 2 h, read-out: Conc. (ng/mL) Mouse 2): 38.1 ng/mL
concentration at 2 h (ip, 10 mg/kg, IP 10 mg/kg, 2 h, read-out: Conc. (ng/mL) Mouse 3): 59.8 ng/mL
concentration at 2 h (ip, 10 mg/kg, IP 10 mg/kg, 2 h, read-out: Mean): 50.4 ng/mL
concentration at 4 h (ip, 10 mg/kg, IP 10 mg/kg, 4 h, read-out: Conc. (ng/mL) Mouse 1): 4.11 ng/mL
concentration at 4 h (ip, 10 mg/kg, IP 10 mg/kg, 4 h, read-out: Conc. (ng/mL) Mouse 2): 14.9 ng/mL
concentration at 4 h (ip, 10 mg/kg, IP 10 mg/kg, 4 h, read-out: Conc. (ng/mL) Mouse 3): 22.2 ng/mL
concentration at 4 h (ip, 10 mg/kg, IP 10 mg/kg, 4 h, read-out: Mean): 13.7 ng/mL
concentration at 0.033 h [1]: 31.4 ng/mL
concentration at 0.033 h [2]: 31.6 ng/mL
concentration at 0.033 h [3]: 34.3 ng/mL
concentration at 0.033 h [4]: 32.4 ng/mL
concentration at 0.083 h [1]: 8.44 ng/mL
concentration at 0.083 h [2]: 9.65 ng/mL
concentration at 0.083 h [3]: 9.61 ng/mL
concentration at 0.083 h [4]: 9.23 ng/mL
concentration at 0.25 h (iv, 1 mg/kg, IV 1.0 mg/kg, 0.25 h, read-out: Conc. (ng/mL) Mouse 2): 2.25 ng/mL
concentration at 0.25 h (iv, 1 mg/kg, IV 1.0 mg/kg, 0.25 h, read-out: Conc. (ng/mL) Mouse 3): 1.73 ng/mL
concentration at 0.25 h (iv, 1 mg/kg, IV 1.0 mg/kg, 0.25 h, read-out: Mean): 1.99 ng/mL
Structure (SMILES): CN(c1cccc(CNc2nc(Nc3ccc(OCCCOCCC(=O)NCCOc4cccc5c4C(=O)N(C4CCC(=O)NC4=O)C5=O)cc3)ncc2C(F)(F)F)c1)S(C)(=O)=O (centres unmarked) [Compound 107]
